# According to PubChem BioAssay (NCI):
# Several values for one entry are separate records, joined by “and”; a condition that tells them apart may be missing. Equal values may be shown once.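 Interpolation was linear, between the two tested concentrations surrounding the appropriate level; five concentrations were tested over 48 hours in 96-well plates. GI50 = concentration required for 50% inhibition of growth. The concentration for full growth arrest is given as TGI.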
# Columns and labels:
# Assay in all cases: growth of human tumour cells (NCI), 48 h
# MDA-MB-231 breast = tested on: MDA-MB-231 breast
# PC-3 prostate = tested on: PC-3 prostate
# SF-295 CNS = tested on: SF-295 CNS
# BT-549 breast = tested on: BT-549 breast
# MCF7 breast = tested on: MCF7 breast
# MDA-MB-435 = tested on: MDA-MB-435
# DLD-1 colon = tested on: DLD-1 colon
# DMS 273 small cell lung = tested on: DMS 273 small cell lung
# LXFL 529 NSCLC = tested on: LXFL 529 NSCLC
Structure (SMILES),GI50 (MDA-MB-231 breast) [µM],TGI (MDA-MB-231 breast),GI50 (PC-3 prostate) [µM],TGI (PC-3 prostate),GI50 (SF-295 CNS) [µM],TGI (SF-295 CNS),GI50 (BT-549 breast) [µM],TGI (BT-549 breast),GI50 (MCF7 breast) [µM],TGI (MCF7 breast),GI50 (MDA-MB-435) [µM],TGI (MDA-MB-435),TGI (DLD-1 colon) [µM],TGI (DMS 273 small cell lung) [µM],TGI (LXFL 529 NSCLC) [µM]
C=CCCCC(O)c1ccc(C(O)c2cnc3ccccc3c2)o1 (stereo not given),27,69.9 µM,32.6,> 100 µM,35.6,> 100 µM,19.7,63.5 µM,26,> 100 µM,22.5,48.4 µM,–,–,–
C[C@H]1CCC2C(CN3CCCCC3)C(=O)OC2[C@]2(C)C(=O)CC(N3CCCCC3)C12O (stereo not given in full),–,–,–,–,–,22.3 µM,–,–,–,–,–,–,16,23.4,–
CC(=O)Nc1ccc(Cc2ccc3[nH]c(=O)cc(C)c3c2)cc1,–,> 100 µM,–,> 100 µM,–,> 100 µM,–,> 100 µM,–,> 100 µM,–,> 100 µM,–,–,–
COC(=O)[C@H](C)[C@@H]1CC[C@](C)(CCC2=C(C)CCCC2(C)C)OO1,–,> 25 µM,–,> 25 µM,–,> 25 µM,–,> 25 µM,–,> 25 µM,–,> 25 µM,–,–,–
C=C(C)C1CCC2(C(=O)O)CCC3(C)C(CCC4C5(C)CCC(O)C(C)(C)C5CCC43C)C12 (stereo not given),–,10.7 µM,–,23.8 µM,–,23.6 µM,–,10.9 µM,–,47.7 µM,–,48.4 µM,–,–,–
Cc1nc2cc(Nc3nc(Nc4ccc(F)cc4)nc(N4CCCC4)n3)ccc2n1Cc1ccccc1,1.78,3.27 µM,1.77,4.29 µM,2.15,4.78 µM,1.88,3.5 µM,2.22,7.44 µM,1.62,3.09 µM,–,–,–
Clc1ccc(Nc2ncnc3c2sc2ncccc23)c(Cl)c1,> 100,> 100 µM,2.72,> 100 µM,0.0309,> 100 µM,0.0243,> 100 µM,< 0.01,> 100 µM,0.0482,> 100 µM,–,–,–
O=C(Nc1nc(-c2ccccc2Cl)cs1)c1cc(-c2ccc(Cl)cc2)nc2ccc(Cl)cc12,2.27,15.2 µM,3.25,34.5 µM,3.16,23.3 µM,2.44,6.99 µM,0.678,> 100 µM,1.71,4.72 µM,–,–,–
C=C(C)[C@@H]1CC[C@]2(C(=O)N3CCN(C)CC3)CC[C@]3(C)[C@H](CC[C@@H]4[C@@]5(C)CC[C@H](O)C(C)(C)[C@@H]5CC[C@]43C)[C@@H]12,1.88,3.57 µM,1.74,3.48 µM,1.68,3.27 µM,1.74,3.49 µM,1.79,4.22 µM,1.8,3.5 µM,–,–,–
Oc1[nH]c2ccccc2c1/C=c1/ccc2c(c1)N=C(c1cc(F)cc(F)c1)N=2,3.63,19.5 µM,3.37,16.7 µM,2.84,10.9 µM,2.13,12.1 µM,2.84,14.1 µM,1.92,5.08 µM,–,–,–
O=c1[nH]c(-c2ccc([N+](=O)[O-])cc2)nc2ccc(Cl)cc12,–,–,–,–,–,> 100 µM,–,–,–,–,–,–,–,> 100,> 100
NNc1ncnc2cccc(Cl)c12,–,> 100 µM,–,> 100 µM,–,> 100 µM,–,> 100 µM,–,> 100 µM,–,–,–,–,–
COc1ccc2c(c1)CC1N(C)CCC13CCCCC23 (stereo not given),–,> 100 µM,–,> 100 µM,–,> 100 µM,–,> 100 µM,–,> 100 µM,–,> 100 µM,–,–,–
CCN(CC)CCNC(=O)C(Cl)=C1C(Cl)=C(Cl)C(Cl)=C1Cl,3.83,31.3 µM,4.23,41.3 µM,5.39,29.3 µM,12.6,25.3 µM,2.8,13.5 µM,2.24,6.54 µM,–,–,–
COc1ccc(Nc2ncccc2C(=O)NCc2cn(Cc3cccc(Oc4ccccc4)c3)nn2)c(OC)c1,3.63,> 28.1 µM,1.36,> 100 µM,0.552,22.2 µM,2.99,> 100 µM,0.653,> 100 µM,0.24,0.707 µM,–,–,–
COc1cccc(/C=C2\CCc3ccccc3C2=O)c1,22.8,87.6 µM,16.3,65.1 µM,9.62,27.3 µM,20,47.6 µM,3.53,17.8 µM,4.15,20.1 µM,–,–,–
COc1cc2oc(-c3ccc(O)cc3)cc(=O)c2c(OC)c1O,–,> 100 µM,–,–,–,> 100 µM,–,> 100 µM,–,> 100 µM,–,> 100 µM,–,–,–
CCN(CC)CC(O)c1cc(-c2ccc(Cl)cc2)nc2cc(Cl)ccc12 (stereo not given),1.4,3.9 µM,2.08,5.98 µM,1.81,3.37 µM,4.75,14.8 µM,1.5,2.9 µM,1.71,3.32 µM,–,–,–
CCOC(=O)Nc1cc(-c2ccc(C)c(NS(C)(=O)=O)c2)nn2c(C)nnc12,0.807,20.4 µM,1.36,> 100 µM,1.85,56.3 µM,5.35,> 100 µM,0.395,> 100 µM,1.33,41.7 µM,–,–,–
O=C(Nc1ccc(Cl)cc1)c1cc2ccccc2cc1OP(=O)(O)O,3.01,16.6 µM,2.92,> 100 µM,8.6,31.9 µM,2.89,9.24 µM,5.52,40.9 µM,3.27,32.3 µM,–,–,–
O=C(O)c1c[nH]c2c(ccc3[nH]cc(C(=O)O)c(=O)c32)c1=O,–,> 100 µM,–,> 100 µM,–,> 100 µM,–,> 100 µM,–,> 100 µM,–,> 100 µM,–,–,–
Nc1nc(Cl)nc2c1ncn2C1OC(CO)C(O)C1O (stereo not given),> 100,> 100 µM,> 100,> 100 µM,> 100,> 100 µM,16.8,> 100 µM,1.66,> 100 µM,3.01,> 100 µM,–,–,–

Structure (SMILES),GI50 (MDA-MB-231 breast) [µM],TGI (MDA-MB-231 breast),GI50 (PC-3 prostate) [µM],TGI (PC-3 prostate),GI50 (SF-295 CNS) [µM],TGI (SF-295 CNS),GI50 (BT-549 breast) [µM],TGI (BT-549 breast),GI50 (MCF7 breast) [µM],TGI (MCF7 breast),GI50 (MDA-MB-435) [µM],TGI (MDA-MB-435),TGI (DLD-1 colon) [µM],TGI (DMS 273 small cell lung) [µM],TGI (LXFL 529 NSCLC) [µM]
N/C(=N\C(N)=N\c1nc2ccccc2s1)c1ccnc(Br)c1,9.13,> 100 µM,4.61,> 100 µM,4.25,> 100 µM,4.32,> 100 µM,5.49,> 100 µM,2.1,7.32 µM,–,–,–
COc1ccc2c(c1)C(=O)c1c-2c(OCCN2CCCCC2)nc2ccc(OC)cc12,2.71,15.3 µM,2.33,21.3 µM,0.529,15.2 µM,8.26,23.3 µM,0.275,2.05 µM,0.648,2.28 µM,–,–,–
COc1cc(-c2ccc(=O)oc2C#Cc2ccccc2)cc(OC)c1OC,12.4,35.8 µM,> 100,> 100 µM,11.2,35.5 µM,19.2,63.4 µM,–,–,14.6,> 100 µM,–,–,–
ClCc1ccc(-c2ccc(Cn3cnc4c(Cl)ncnc43)cc2)cc1,1.77,3.73 µM,2.8,9.92 µM,1.92,4.89 µM,3.11,> 100 µM,1.1,12.4 µM,–,–,–,–,–
O=C(O)C1C2CCC(O2)C1C(=O)NCc1cccnc1 (stereo not given),–,> 100 µM,–,> 100 µM,–,> 100 µM,–,> 100 µM,–,> 100 µM,–,> 100 µM,–,–,–
Cn1cc(-c2ccc3nnc(C(F)(F)c4ccc5ncccc5c4)n3n2)cn1,34.2,> 100 µM,85,> 100 µM,3.82,> 100 µM,86.8,> 100 µM,69.4,> 100 µM,57.8,> 100 µM,–,–,–
CCCCCCn1c2c(c3c(O)cccc31)C(=O)c1ccccc1-2,16.3,33.4 µM,19.6,36.6 µM,21,44.8 µM,16.4,33.9 µM,18,35.2 µM,20.3,44.9 µM,–,–,–
O=C1Nc2c(ccc(Cl)c2Cl)/C1=C\c1cc(C(F)(F)F)cc(C(F)(F)F)c1,3.74,10.8 µM,1.1,4.51 µM,1.92,8.02 µM,6.02,12.5 µM,0.848,5.64 µM,1.99,7.64 µM,–,–,–
CS(=O)(=O)c1ccc(-c2cnc(NCc3ccco3)n3cnnc23)cc1,41.4,> 100 µM,57.8,> 100 µM,> 100,> 100 µM,> 100,> 100 µM,60.4,> 100 µM,54.5,> 100 µM,–,–,–
COc1cc(/C=C2\CC3C4CCC5=CC(=O)CC[C@]5(C)C4CC[C@]3(C)C2=O)ccc1OCCN1CCCCC1 (stereo not given in full),1.85,5.03 µM,2.33,12.8 µM,2.02,4.24 µM,6.19,23.3 µM,3.35,8.55 µM,1.97,4.28 µM,–,–,–
CSc1nc(SC)c2c(C)cn(C3OC(C)C(O)C(O)C3O)c2n1 (stereo not given),–,> 100 µM,–,> 100 µM,–,> 100 µM,–,> 100 µM,–,> 100 µM,–,> 100 µM,–,–,–
O=C(c1ccccc1)c1c2n(c3c1cc(O)c1ccccc13)CCN2,2.13,4.51 µM,2.69,13 µM,7.11,20.8 µM,13.5,30.6 µM,1.97,3.87 µM,1.99,3.73 µM,–,–,–
CN1c2ccccc2S(=O)(=O)n2c(COc3ccccc3)nnc21,–,> 100 µM,–,> 100 µM,–,> 100 µM,–,> 100 µM,–,> 100 µM,–,> 100 µM,–,–,–
O=C(NCCCl)NCc1ccccc1,–,> 100 µM,–,> 100 µM,–,> 100 µM,–,–,–,> 100 µM,–,> 100 µM,–,–,–
CNC(=O)c1cc(Oc2ccc3nc(NC(=O)Nc4cc(C(F)(F)F)cc(C(F)(F)F)c4)sc3c2)ccn1,0.829,2.62 µM,0.611,2.29 µM,1.08,2.41 µM,1.34,3.07 µM,1.05,2.93 µM,1.04,2.7 µM,–,–,–
COc1cc(OC)c(/C=C/C(=O)c2c(O)cc(OC)c(C3CCN(C)CC3)c2OC)c(OC)c1,–,–,1.5,2.86 µM,1.56,2.98 µM,1.43,2.73 µM,–,–,1.53,2.92 µM,–,–,–
CC(C)(N)C(=O)N[C@@H]1C(=O)N2[C@@H]1SC(C)(C)[C@@H]2C(=O)O,–,> 100 µM,–,> 100 µM,–,> 100 µM,–,> 100 µM,–,> 100 µM,–,> 100 µM,–,–,–
CC/C(=C(/CC)c1ccc(O)cc1)c1ccc(O)cc1,10,25.2 µM,5.75,50.9 µM,2.73,11.6 µM,6.16,21.5 µM,5.78,19.3 µM,1.87,5.14 µM,–,–,–
Cc1ccnc(NC(c2ccccc2)c2ccc3cccnc3c2O)c1 (stereo not given),5.65,97.1 µM,5.94,> 100 µM,2.42,16.3 µM,–,–,5.18,30.4 µM,4.18,30.5 µM,–,–,–
NCCCCCCCCCn1c2c(c3ccccc3c1=O)C(=O)c1ccccc1-2,1.13,11.1 µM,10.6,29.2 µM,9.67,20.8 µM,9.26,18.9 µM,9.62,26.1 µM,9.52,19.1 µM,–,–,–
COc1c(OC)c(OC)c(-c2cc(=O)c3c(OC)c(OC)c(OC)c(OC)c3o2)c(OC)c1OC,–,> 100 µM,–,–,–,> 100 µM,–,> 100 µM,–,–,–,> 100 µM,–,–,–
COc1ccc(/C=C/C(=O)c2ccccc2)cc1OC,–,38.1 µM and 52.6 µM,23.2,25.1 µM and 82 µM,14.5,32.9 µM and 34 µM,–,37.5 µM and 35.3 µM,3.3,11.8 µM and 13.4 µM,6.89,14.6 µM and 25.2 µM,–,–,–
